From the NIST ThermoML archive (doi:10.1016/j.jct.2014.12.011)
± gives the expanded uncertainty stated by the source.

Test: mn = molality of the nth substance listed, in mol/kg
Settings: 100 kPa, Liquid, Alternating current cell with electrodes

CCCCCCCCCC(=O)[O-].[Cs+] [cesium decanoate] + O
electrical conductivity [S/m]
Settings | 278.15 K | 288.15 K | 298.15 K | 308.15 K | 318.15 K | 328.15 K
m1 = 0.00805 | 0.0479 ± 0.0007 | 0.0614 ± 0.0009 | 0.0757 ± 0.0012 | 0.091 ± 0.0014 | 0.107 ± 0.0016 | 0.123 ± 0.0019
m1 = 0.01759 | 0.101 ± 0.0011 | 0.13 ± 0.0015 | 0.161 ± 0.0018 | 0.193 ± 0.0022 | 0.227 ± 0.0026 | 0.261 ± 0.003
m1 = 0.0274 | 0.151 ± 0.0016 | 0.197 ± 0.0021 | 0.241 ± 0.0025 | 0.29 ± 0.0031 | 0.342 ± 0.0036 | 0.396 ± 0.0042
m1 = 0.03769 | 0.207 ± 0.0021 | 0.261 ± 0.0027 | 0.323 ± 0.0033 | 0.39 ± 0.004 | 0.46 ± 0.0047 | 0.533 ± 0.0055
m1 = 0.04818 | 0.261 ± 0.0027 | 0.327 ± 0.0033 | 0.404 ± 0.0041 | 0.487 ± 0.005 | 0.575 ± 0.0059 | 0.667 ± 0.0068
m1 = 0.06109 | 0.316 ± 0.0032 | 0.405 ± 0.0041 | 0.502 ± 0.0051 | 0.604 ± 0.0061 | 0.713 ± 0.0072 | 0.824 ± 0.0083
m1 = 0.0725 | 0.3714 ± 0.0037 | 0.476 ± 0.0048 | 0.588 ± 0.0059 | 0.707 ± 0.0071 | 0.829 ± 0.0084 | 0.958 ± 0.0097
m1 = 0.08819 | 0.4405 ± 0.0044 | 0.564 ± 0.0057 | 0.696 ± 0.007 | 0.835 ± 0.0084 | 0.988 ± 0.0099 | 1.147 ± 0.011
m1 = 0.1027 | 0.5001 ± 0.005 | 0.639 ± 0.0064 | 0.7914 ± 0.0079 | 0.954 ± 0.0096 | 1.121 ± 0.011 | 1.3 ± 0.013
m1 = 0.1172 | 0.554 ± 0.0056 | 0.715 ± 0.0072 | 0.883 ± 0.0089 | 1.06 ± 0.011 | 1.24 ± 0.013 | 1.44 ± 0.015
m1 = 0.1325 | 0.6113 ± 0.0061 | 0.79 ± 0.0079 | 0.965 ± 0.0097 | 1.16 ± 0.012 | 1.36 ± 0.014 | 1.58 ± 0.016
m1 = 0.153 | 0.697 ± 0.007 | 0.875 ± 0.0088 | 1.07 ± 0.011 | 1.28 ± 0.013 | 1.514 ± 0.015 | 1.76 ± 0.018
m1 = 0.1705 | 0.7509 ± 0.0075 | 0.944 ± 0.0095 | 1.16 ± 0.012 | 1.39 ± 0.014 | 1.642 ± 0.016 | 1.914 ± 0.019
m1 = 0.1873 | 0.799 ± 0.008 | 1.009 ± 0.01 | 1.241 ± 0.012 | 1.49 ± 0.015 | 1.77 ± 0.018 | 2.06 ± 0.021
m1 = 0.2051 | 0.8512 ± 0.0085 | 1.08 ± 0.011 | 1.33 ± 0.013 | 1.604 ± 0.016 | 1.9 ± 0.019 | 2.211 ± 0.022
m1 = 0.2256 | 0.914 ± 0.0092 | 1.16 ± 0.012 | 1.438 ± 0.014 | 1.735 ± 0.017 | 2.05 ± 0.021 | 2.39 ± 0.024
m1 = 0.2463 | 0.976 ± 0.0098 | 1.25 ± 0.013 | 1.542 ± 0.015 | 1.86 ± 0.019 | 2.207 ± 0.022 | 2.57 ± 0.026

CCCCCCCCCC(=O)[O-].[K+] [potassium decanoate] + O
Settings | electrical conductivity [S/m]
288.15 K, m1 = 0.00932 | 0.0666 ± 0.001
288.15 K, m1 = 0.01855 | 0.13 ± 0.0015
288.15 K, m1 = 0.02771 | 0.19 ± 0.002
288.15 K, m1 = 0.03678 | 0.247 ± 0.0026
288.15 K, m1 = 0.04578 | 0.303 ± 0.0031
288.15 K, m1 = 0.0547 | 0.358 ± 0.0036
288.15 K, m1 = 0.06355 | 0.411 ± 0.0042
288.15 K, m1 = 0.07232 | 0.462 ± 0.0047
288.15 K, m1 = 0.08102 | 0.511 ± 0.0052
288.15 K, m1 = 0.08964 | 0.5603 ± 0.0056
288.15 K, m1 = 0.09819 | 0.608 ± 0.0061
288.15 K, m1 = 0.1067 | 0.654 ± 0.0066
288.15 K, m1 = 0.1151 | 0.698 ± 0.007
288.15 K, m1 = 0.1234 | 0.738 ± 0.0074
288.15 K, m1 = 0.1317 | 0.771 ± 0.0077
288.15 K, m1 = 0.1399 | 0.8021 ± 0.008
288.15 K, m1 = 0.148 | 0.8314 ± 0.0083
288.15 K, m1 = 0.1561 | 0.86 ± 0.0086
288.15 K, m1 = 0.1641 | 0.888 ± 0.0089
288.15 K, m1 = 0.1721 | 0.915 ± 0.0092
288.15 K, m1 = 0.1799 | 0.943 ± 0.0094
288.15 K, m1 = 0.1878 | 0.9704 ± 0.0097
298.15 K, m1 = 0.00998 | 0.0875 ± 0.0012
298.15 K, m1 = 0.01987 | 0.172 ± 0.0019
298.15 K, m1 = 0.02967 | 0.251 ± 0.0026
298.15 K, m1 = 0.03939 | 0.328 ± 0.0034
298.15 K, m1 = 0.04902 | 0.402 ± 0.0041
298.15 K, m1 = 0.05856 | 0.474 ± 0.0048
298.15 K, m1 = 0.06803 | 0.545 ± 0.0055
298.15 K, m1 = 0.07741 | 0.613 ± 0.0062
298.15 K, m1 = 0.08671 | 0.679 ± 0.0068
298.15 K, m1 = 0.09593 | 0.743 ± 0.0075
298.15 K, m1 = 0.1051 | 0.802 ± 0.0081
298.15 K, m1 = 0.1141 | 0.858 ± 0.0086
298.15 K, m1 = 0.1231 | 0.905 ± 0.0091
298.15 K, m1 = 0.1321 | 0.949 ± 0.0095
298.15 K, m1 = 0.1409 | 0.99 ± 0.0099
298.15 K, m1 = 0.1497 | 1.03 ± 0.01
298.15 K, m1 = 0.1583 | 1.07 ± 0.011
298.15 K, m1 = 0.167 | 1.108 ± 0.011
298.15 K, m1 = 0.1755 | 1.147 ± 0.011
298.15 K, m1 = 0.184 | 1.19 ± 0.012
298.15 K, m1 = 0.1924 | 1.224 ± 0.012
298.15 K, m1 = 0.2008 | 1.26 ± 0.013
298.15 K, m1 = 0.209 | 1.301 ± 0.013
308.15 K, m1 = 0.00952 | 0.101 ± 0.0014
308.15 K, m1 = 0.01895 | 0.198 ± 0.0022
308.15 K, m1 = 0.0283 | 0.29 ± 0.0031
308.15 K, m1 = 0.03758 | 0.379 ± 0.0039
308.15 K, m1 = 0.04677 | 0.465 ± 0.0048
308.15 K, m1 = 0.05588 | 0.549 ± 0.0056
308.15 K, m1 = 0.06492 | 0.631 ± 0.0064
308.15 K, m1 = 0.07388 | 0.71 ± 0.0072
308.15 K, m1 = 0.08277 | 0.785 ± 0.0079
308.15 K, m1 = 0.09158 | 0.8601 ± 0.0086
308.15 K, m1 = 0.1003 | 0.931 ± 0.0093
308.15 K, m1 = 0.109 | 0.996 ± 0.01
308.15 K, m1 = 0.1176 | 1.05 ± 0.011
308.15 K, m1 = 0.1261 | 1.104 ± 0.011
308.15 K, m1 = 0.1346 | 1.15 ± 0.012
308.15 K, m1 = 0.1429 | 1.201 ± 0.012
308.15 K, m1 = 0.1512 | 1.25 ± 0.013
308.15 K, m1 = 0.1595 | 1.29 ± 0.013
308.15 K, m1 = 0.1677 | 1.342 ± 0.013
308.15 K, m1 = 0.1758 | 1.39 ± 0.014
308.15 K, m1 = 0.1838 | 1.434 ± 0.014
308.15 K, m1 = 0.1918 | 1.48 ± 0.015
308.15 K, m1 = 0.1997 | 1.525 ± 0.015
318.15 K, m1 = 0.0099 | 0.125 ± 0.0017
318.15 K, m1 = 0.01971 | 0.243 ± 0.0027
318.15 K, m1 = 0.02944 | 0.356 ± 0.0037
318.15 K, m1 = 0.03908 | 0.465 ± 0.0048
318.15 K, m1 = 0.04864 | 0.571 ± 0.0058
318.15 K, m1 = 0.05811 | 0.673 ± 0.0068
318.15 K, m1 = 0.0675 | 0.771 ± 0.0078
318.15 K, m1 = 0.07682 | 0.867 ± 0.0087
318.15 K, m1 = 0.08605 | 0.962 ± 0.0097
318.15 K, m1 = 0.0952 | 1.05 ± 0.011
318.15 K, m1 = 0.1043 | 1.135 ± 0.011
318.15 K, m1 = 0.1133 | 1.21 ± 0.012
318.15 K, m1 = 0.1222 | 1.28 ± 0.013
318.15 K, m1 = 0.131 | 1.342 ± 0.013
318.15 K, m1 = 0.1398 | 1.404 ± 0.014
318.15 K, m1 = 0.1485 | 1.46 ± 0.015
318.15 K, m1 = 0.1571 | 1.524 ± 0.015
318.15 K, m1 = 0.1657 | 1.58 ± 0.016
318.15 K, m1 = 0.1742 | 1.641 ± 0.016
318.15 K, m1 = 0.1826 | 1.7 ± 0.017
318.15 K, m1 = 0.1909 | 1.76 ± 0.018
318.15 K, m1 = 0.1992 | 1.815 ± 0.018
318.15 K, m1 = 0.2074 | 1.87 ± 0.019
328.15 K, m1 = 0.00972 | 0.143 ± 0.002
328.15 K, m1 = 0.01937 | 0.279 ± 0.0031
328.15 K, m1 = 0.02892 | 0.408 ± 0.0043
328.15 K, m1 = 0.0384 | 0.533 ± 0.0055
328.15 K, m1 = 0.0478 | 0.654 ± 0.0067
328.15 K, m1 = 0.05712 | 0.769 ± 0.0078
328.15 K, m1 = 0.06636 | 0.883 ± 0.0089
328.15 K, m1 = 0.07552 | 0.994 ± 0.01
328.15 K, m1 = 0.08461 | 1.103 ± 0.011
328.15 K, m1 = 0.09362 | 1.207 ± 0.012
328.15 K, m1 = 0.1026 | 1.305 ± 0.013
328.15 K, m1 = 0.1114 | 1.4 ± 0.014
328.15 K, m1 = 0.1202 | 1.48 ± 0.015
328.15 K, m1 = 0.1289 | 1.55 ± 0.016
328.15 K, m1 = 0.1376 | 1.627 ± 0.016
328.15 K, m1 = 0.1462 | 1.7 ± 0.017
328.15 K, m1 = 0.1547 | 1.77 ± 0.018
328.15 K, m1 = 0.1631 | 1.836 ± 0.018
328.15 K, m1 = 0.1715 | 1.904 ± 0.019
328.15 K, m1 = 0.1798 | 1.97 ± 0.02
328.15 K, m1 = 0.188 | 2.038 ± 0.02
328.15 K, m1 = 0.1962 | 2.106 ± 0.021
328.15 K, m1 = 0.2043 | 2.17 ± 0.022
